This is an account of results in patent US20240199647A1, “ANTI-VIRAL COMPOUNDS” (Aligos Therapeutics, Inc., priority 2022, published 2024).

For one series, the target named is SARS-Cov-2 3CLpro (Severe acute respiratory syndrome coronavirus 2, UniProt P0DTD1). Put plainly: biochemical. The conditions noted are these: Table A, class symbols, read-out: SARS-Cov-2 (IC50).
Series [1] is described as follows: Cytotoxicity in HeLa cells without addition of OC43 virus (in parallel). The conditions noted are these: human, HeLa cells, without OC43 virus.
In series [2] the test system is human beta-coronavirus OC43. The experiment in a line: OC43 Coronavirus Assay in HeLa cells (antiviral, cytopathic effect, cell-titer-glo). The conditions noted are these: Betacoronavirus 1, OC43, HeLa. Format: cell-based. In general terms: Damage to the host cells serves as the signal in cytopathic effect assays.
The nature of a further series: in vitro. The conditions noted are these: human.
In series [3] the test system is SARS-CoV-2 B.1.1.7 lineage. The experiment in a line: microbe, parasite or virus in culture. The conditions noted are these: Severe acute respiratory syndrome coronavirus 2, Table C, SARS-CoV-2 B.1.1.7 in A549-dual_ACE2_TMPRSS2 cells, read-out: A549-dual_ACE2_TMPRSS2 (EC50). Format: cell-based.
Where [4] appears, read: Table B, OC43 coronavirus in HeLa cells, class symbols, read-out: EC50.

By IC50 is commonly meant the midpoint of a concentration-inhibition curve. By EC50 is commonly meant the concentration at which the effect is half-maximal.

Like-named read-outs stand apart in the source and are kept apart here. Some results are limits rather than exact numbers.

On to `CN(C(=O)[C@H](COC(C)(C)C)NC(=O)C(F)(F)F)[C@@H](CC1CC1)C(=O)N1C[C@@]2(C[C@H]1C#N)Oc1cc(F)cc(F)c1NC2=O` [Compound 158], for which the IC50 on SARS-Cov-2 3CLpro is below 0.02 µM. For the same compound, the CC50 at 6 days in series [1] is above 10 µM. Further, the EC50 in series [2] (setting [4]) and in series [3] (class symbols) was below 0.1 µM throughout. Further, in the series “in vitro”, the CC50 is above 1 µM.

As for `COC1CNC(=O)[C@]12C[C@@H](C#N)N(C(=O)[C@H](CC1CC1)N(C)C(=O)[C@H](CC1CC1)NC(=O)C(F)(F)F)C2` (stereo partly drawn) [Compound 225, (2S)—N-((2S)-1-((3S,5S)-3-cyano-9-methoxy-6-oxo-2,7-diazaspiro[4.4]nonan-2-yl)-3-cyclopropyl-1-oxopropan-2-yl)-3-cyclopropyl-N-methyl-2-(2,2,2-trifluoroacetamido)propanamide], the IC50 on SARS-Cov-2 3CLpro was in the range of 0.02 to 0.2 µM. In addition, in series [1], the CC50 at 6 days was above 10 µM. Besides, the EC50 in series [2] (setting [4]) and in series [3] (class symbols) was 0.1 to 1 µM each time. Besides, the CC50 in “in vitro” was above 1 µM.

Regarding `CN(C(=O)[C@H](CC1CC1)NC(=O)C(F)(F)F)[C@@H](CC1CC1)C(=O)N1C[C@@]2(C[C@H]1C#N)Oc1cccnc1CNC2=O` [Compound 121, (S)—N—((S)-1-((2R,5'S)-5′-cyano-3-oxo-4,5-dihydro-3H-spiro[pyrido[2,3-f][1,4]oxazepine-2,3′-pyrrolidin]-1′-yl)-3-cyclopropyl-1-oxopropan-2-yl)-3-cyclopropyl-N-methyl-2-(2,2,2-trifluoroacetamido)propanamide], on SARS-Cov-2 3CLpro, the IC50 was below 0.02 µM. This compound also returned a CC50 at 6 days in series [1] above 10 µM. Moreover, the EC50 in series [2] (setting [4]) was below 0.1 µM; in series [3] (class symbols), 0.1 to 1 µM. This compound also had a CC50 in “in vitro” above 1 µM.

Turning to `CN(C(=O)C1(NC(=O)C(F)(F)F)CCCCC1)[C@@H](CC1CC1)C(=O)N1C[C@@]2(C[C@H]1C#N)Oc1cccnc1NC2=O` [Compound 173], the 50% inhibitory concentration (IC50) at SARS-Cov-2 3CLpro lay in the range of 0.2 to 2 µM. The same compound showed a CC50 at 6 days in series [1] above 10 µM. Further, the 50% effective concentration (EC50) was 1 to 10 µM in series [2] (setting [4]) and above 1 µM in series [3] (cells given as a bound). In the series “in vitro”, this compound came in with a CC50 above 1 µM.

Consider `CN(C(=O)[C@H](CC1CC1)NC(=O)C(F)(F)F)[C@@H](CC1CC1)C(=O)N1C[C@@]2(C[C@H]1C#N)Oc1cccc(F)c1NC2=O` [Compound 56], for which, at SARS-Cov-2 3CLpro, the IC50 is below 0.02 µM. The compound also showed a CC50 at 6 days in series [1] above 10 µM. Besides, the EC50 in series [2] (setting [4]) and in series [3] (class symbols) was below 0.1 µM each time. The CC50 in “in vitro” was above 1 µM.

Turning to `CN(C(=O)[C@@H]1CCN(C(=O)C(F)(F)F)C1)[C@@H](CC1CC1)C(=O)N1C[C@@]2(C[C@H]1C#N)Oc1cc(F)cc(F)c1NC2=O` [Compound 128], the IC50 at SARS-Cov-2 3CLpro fell in the range of 0.2 to 2 µM. In series [1], this compound showed a CC50 at 6 days above 10 µM. The EC50 in series [2] was above 10 µM; in series [3] (class symbols), 0.1 to 1 µM. For the same compound, in “in vitro”, the CC50 was above 1 µM.

`CN(C(=O)[C@H](CC1CC1)NC(=O)C(F)(F)F)[C@@H](CC1CC1)C(=O)N1C[C@]2(C[C@H]1C#N)C(=O)NCc1ccccc12` (single isomer, unassigned) [Compound 122]: the IC50 on SARS-Cov-2 3CLpro was below 0.02 µM. For the same compound, the CC50 at 6 days in series [1] is above 10 µM. Besides, the EC50 in series [2] (setting [4]) and in series [3] (class symbols) was below 0.1 µM in each case. The compound further registered a CC50 in “in vitro” above 1 µM.

For `C[C@H](c1ccccc1)[C@H](NC(=O)C(F)(F)F)C(=O)N(C)[C@@H](CC1CC1)C(=O)N1C[C@@]2(C[C@H]1C#N)Oc1cccnc1NC2=O` [Compound 193], the IC50 at SARS-Cov-2 3CLpro was in the range of 0.02 to 0.2 µM. Besides, the CC50 at 6 days in series [1] was above 10 µM. The EC50 in series [2] (setting [4]) and in series [3] (class symbols) was 0.1 to 1 µM in each case. In “in vitro”, this compound came in with a CC50 above 1 µM.

With `C[C@H](NC(=O)C(F)(F)F)C(=O)N(C)[C@@H](CC1CC1)C(=O)N1C[C@@]2(C[C@H]1C#N)Oc1cc(F)cnc1NC2=O` [Compound 144], the IC50 at SARS-Cov-2 3CLpro was below 0.02 µM. In addition, the CC50 at 6 days in series [1] was above 10 µM. Moreover, the EC50 in series [2] (setting [4]) was below 0.1 µM; in series [3] (class symbols) it was 0.1 to 1 µM. In the series “in vitro”, this compound displayed a CC50 above 1 µM.

On to `COC[C@H](NC(=O)C(F)(F)F)C(=O)N(C)[C@@H](CC(C)C)C(=O)N1C[C@@]2(C[C@H]1C#N)Oc1cc(F)cc(F)c1NC2=O` [Compound 72], for which, on SARS-Cov-2 3CLpro, the IC50 was below 0.02 µM. For the same compound, the CC50 at 6 days in series [1] was above 10 µM. In addition, the EC50 in series [2] (setting [4]) and in series [3] (class symbols) was 0.1 to 1 µM each time. Further, in “in vitro”, the CC50 was above 1 µM.

Regarding `CC(C)C[C@@H](C(=O)N1C[C@]2(C[C@H]1C#N)C(=O)Nc1c3ccccc3nn12)N(C)C(=O)[C@H](C)NC(=O)C(F)(F)F` [Example 27, (2S)—N-[(2S)-1-[(3R,5'S)-5′-cyano-2-oxo-1H-spiro[imidazo[1,2-b]indazole-3,3′-pyrrolidin]-1′-yl]-4-methyl-1-oxopentan-2-yl]-N-methyl-2-(2,2,2-trifluoroacetamido)propanamide], at SARS-Cov-2 3CLpro, the IC50 lay within 0.02 to 0.2 µM. Moreover, in series [1], the CC50 at 6 days was above 10 µM. For the same compound, the EC50 in series [2] (setting [4]) is 1 to 10 µM; in series [3] (cells given as a bound), above 1 µM. In addition, in “in vitro”, the CC50 was above 1 µM.

As to `CN(C(=O)[C@H](CC1CC1)NC(=O)C(F)(F)F)[C@@H](CC1CC1)C(=O)N1C[C@@]2(C[C@H]1C#N)Oc1cc(F)cc(F)c1NC2=O` [Compound 55], on SARS-Cov-2 3CLpro, the IC50 was below 0.02 µM. For the same compound, in series [1], the CC50 at 6 days was above 10 µM. Also, the EC50 in series [2] (setting [4]) and in series [3] (class symbols) was below 0.1 µM each time. In addition, in the series “in vitro”, the CC50 was above 1 µM.

For `C[C@H](NC(=O)C(F)(F)F)C(=O)N(C)[C@@H](CC1CCC1)C(=O)N1C[C@@]2(C[C@H]1C#N)Oc1cccnc1NC2=O` [Compound 165], on SARS-Cov-2 3CLpro, the IC50 is below 0.02 µM. For the same compound, in series [1], the CC50 at 6 days is above 10 µM. Also, the EC50 in series [2] (setting [4]) and in series [3] (class symbols) was below 0.1 µM throughout. This compound returned a CC50 in the series “in vitro” above 1 µM.

In the case of `COc1ccc(Cl)c2[nH]c(C(=O)N(C)[C@@H](CC3CC3)C(=O)N3C[C@@]4(C[C@H]3C#N)Oc3cc(F)cc(F)c3NC4=O)cc12` [Compound 135], the IC50 at SARS-Cov-2 3CLpro is below 0.02 µM. In addition, in series [1], the CC50 at 6 days was above 10 µM. Further, the EC50 in series [2] (setting [4]) is below 0.1 µM; in series [3] (class symbols), 0.1 to 1 µM. The compound also had a CC50 in “in vitro” above 1 µM.

Take `CN(C(=O)[C@H](CC1(C)CCC1)NC(=O)C(F)(F)F)[C@@H](CC1CC1)C(=O)N1C[C@@]2(C[C@H]1C#N)Oc1ncccc1NC2=O` [Compound 206]: the IC50 on SARS-Cov-2 3CLpro is below 0.02 µM. For the same compound, the CC50 at 6 days in series [1] was above 10 µM. The EC50 in series [2] (setting [4]) and in series [3] (class symbols) was below 0.1 µM in each case. Besides, the CC50 in the series “in vitro” is above 1 µM.

As to `CN(C(=O)[C@H](CC(F)(F)F)NC(=O)C(F)(F)F)[C@@H](CC1CC1)C(=O)N1C[C@@]2(C[C@H]1C#N)Oc1cccnc1NC2=O` [Compound 189], the IC50 at SARS-Cov-2 3CLpro lay within 0.02 to 0.2 µM. In series [1], this compound displayed a CC50 at 6 days above 10 µM. The EC50 in series [2] (setting [4]) and in series [3] (class symbols) was 0.1 to 1 µM in each case. This compound also returned a CC50 in the series “in vitro” above 1 µM.

Regarding `CC(C)C[C@@H](C(=O)N1C[C@]2(C[C@H]1C#N)C(=O)Nc1cc(Br)nn12)N(C)C(=O)[C@H](C)NC(=O)C(F)(F)F` [Compound 26, (2S)—N-[(2S)-1-[(3R,5'S)-6-bromo-5′-cyano-2-oxo-1H-spiro[pyrazolo[1,5-a]imidazole-3,3′-pyrrolidin]-1′-yl]-4-methyl-1-oxopentan-2-yl]-N-methyl-2-(2,2,2-trifluoroacetamido)propanamide], the IC50 at SARS-Cov-2 3CLpro lay in the range of 0.02 to 0.2 µM. The same compound yielded a CC50 at 6 days in series [1] above 10 µM. Further, the EC50 is 0.1 to 1 µM in series [2] (setting [4]) and above 1 µM in series [3] (cells given as a bound). The same compound displayed a CC50 in the series “in vitro” above 1 µM.
